In US5506102A (priority 1993, dated 1996):

Target: T1, PR-A (Homo sapiens, UniProt P06401)
T1 sequence (P06401 165-933): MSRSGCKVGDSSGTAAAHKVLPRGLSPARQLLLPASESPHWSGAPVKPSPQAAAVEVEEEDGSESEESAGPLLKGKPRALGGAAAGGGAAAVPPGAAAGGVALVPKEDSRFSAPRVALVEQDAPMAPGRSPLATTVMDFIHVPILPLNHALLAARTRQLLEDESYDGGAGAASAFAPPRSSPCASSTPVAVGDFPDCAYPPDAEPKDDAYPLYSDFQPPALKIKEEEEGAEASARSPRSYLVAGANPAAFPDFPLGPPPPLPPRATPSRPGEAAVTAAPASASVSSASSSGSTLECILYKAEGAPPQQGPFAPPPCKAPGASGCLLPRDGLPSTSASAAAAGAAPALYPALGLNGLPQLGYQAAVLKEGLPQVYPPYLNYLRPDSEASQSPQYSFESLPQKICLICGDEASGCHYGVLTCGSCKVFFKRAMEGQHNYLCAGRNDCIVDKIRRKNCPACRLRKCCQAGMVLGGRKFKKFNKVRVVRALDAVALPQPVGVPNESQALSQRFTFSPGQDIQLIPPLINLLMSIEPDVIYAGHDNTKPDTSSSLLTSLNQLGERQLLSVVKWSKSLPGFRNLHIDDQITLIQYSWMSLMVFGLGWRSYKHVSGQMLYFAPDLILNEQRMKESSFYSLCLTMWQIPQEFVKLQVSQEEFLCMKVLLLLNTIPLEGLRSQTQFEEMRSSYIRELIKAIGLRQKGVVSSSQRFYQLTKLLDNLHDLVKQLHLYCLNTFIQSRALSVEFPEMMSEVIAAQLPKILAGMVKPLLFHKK
Assay: PR-A regulation of TAT promoter
Type: cell-based
Design: TAT2950-LUC in HeLa, PRE2 tk-LUC in CV-1/HepG2
Settings: data not shown
Procedure: FIGS. 4A-4B are a series of graphs showing CV-1 ([…]) or HepG2 (FIG. 4B) cells that were transiently transfected with either […] of phPR-B or phPR-A alone, or phPR-B in the presence of increasing concentrations of phPR-A, together with 5 µg/ml of the PRE2 tk-LUC reporter and 5 µg/ml of pCH110 as an internal control. HeLa cells (FIG. 4C) were transfected with either phPR-B or phPR-A together with 5 µg/ml of the pTAT2950 reporter and 5 µg/ml of pCH110 as an internal control. […] The relative luciferase activity is calculated by dividing the normalized luciferase value at a given point by that obtained in the absence of transfected receptor or ligand. The data shown represent the mean +/- average deviation from the mean of triplicate estimations;
The 2.9 Kb fragment resulting from the digestion of the pTAT-CAT plasmid, and the 6.7 Kb fragment, containing the luciferase gene and the backbone resulting from MMTV-LUC digestion products, were ligated to create the plasmid TAT2950-LUC.
Cells were seeded in 12-well, 96-well or 10 cm tissue culture plates. […] 20 μg of DNA/ml of transfection buffer were used in each transfection reaction. […]

## CC(=O)[C@H]1CC[C@H]2[C@@H]3CCC4=CC(=O)CC[C@]4(C)[C@H]3CC[C@]12C [progesterone]
CV-1, PR-A
  TAT promoter response: unresponsive to either receptor subtype
HepG2, phPR-A
  TAT promoter response to progesterone: responded to progesterone
